The target in assay [1] is T1, HIF-2α (Homo sapiens, UniProt Q99814). The assay can be described thus: HIF-2α Luciferase Reporter Assay (serum free) in HIF-Luc-786-0 cells. Type of assay: cell-based. The following applies: Opti-MEM, 786-0 reporter cells, 20 hours incubation. Put shortly:
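786-0 cells stably transduced with HIF luciferase reporter, 20,000 cells/well in serum-free Opti-MEM, compounds (50 uM downward, 1% DMSO) 20 h at 37 °C. ONE-Glo luminescence normalized to DMSO and no-cell controls; IC50 from four-parameter fit.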
Background: A reporter such as luciferase makes a cellular process visible.

The target of assay [2] is T1, HIF-2α. Description: HIF-2α Luciferase Reporter Assay (serum), HRE-luciferase 786-0 cells in 100% human serum. The following applies: for IC50: 100% human serum, 786-0 reporter cells, overnight incubation, read-out: Serum Potency. The class given is cell-based. Put shortly: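 786-0 cells stably expressing an HRE-luciferase reporter were plated and rested 3 h. They were then treated overnight at 37 °C with compound diluted in 100% human serum. Serum was replaced with Opti-MEM, ONE-Glo luminescence was read, and IC50 came from a 4-parameter logistic fit.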

The mark [3] stands for this setting: ratio of IC50 in 100% serum to IC50 in serum free conditions, approximate.

SMILES strings stand for the structures. Where two headings read alike, the source gives them in different places. Some results are limits rather than exact numbers.

T1 sequence (Q99814 whole entry): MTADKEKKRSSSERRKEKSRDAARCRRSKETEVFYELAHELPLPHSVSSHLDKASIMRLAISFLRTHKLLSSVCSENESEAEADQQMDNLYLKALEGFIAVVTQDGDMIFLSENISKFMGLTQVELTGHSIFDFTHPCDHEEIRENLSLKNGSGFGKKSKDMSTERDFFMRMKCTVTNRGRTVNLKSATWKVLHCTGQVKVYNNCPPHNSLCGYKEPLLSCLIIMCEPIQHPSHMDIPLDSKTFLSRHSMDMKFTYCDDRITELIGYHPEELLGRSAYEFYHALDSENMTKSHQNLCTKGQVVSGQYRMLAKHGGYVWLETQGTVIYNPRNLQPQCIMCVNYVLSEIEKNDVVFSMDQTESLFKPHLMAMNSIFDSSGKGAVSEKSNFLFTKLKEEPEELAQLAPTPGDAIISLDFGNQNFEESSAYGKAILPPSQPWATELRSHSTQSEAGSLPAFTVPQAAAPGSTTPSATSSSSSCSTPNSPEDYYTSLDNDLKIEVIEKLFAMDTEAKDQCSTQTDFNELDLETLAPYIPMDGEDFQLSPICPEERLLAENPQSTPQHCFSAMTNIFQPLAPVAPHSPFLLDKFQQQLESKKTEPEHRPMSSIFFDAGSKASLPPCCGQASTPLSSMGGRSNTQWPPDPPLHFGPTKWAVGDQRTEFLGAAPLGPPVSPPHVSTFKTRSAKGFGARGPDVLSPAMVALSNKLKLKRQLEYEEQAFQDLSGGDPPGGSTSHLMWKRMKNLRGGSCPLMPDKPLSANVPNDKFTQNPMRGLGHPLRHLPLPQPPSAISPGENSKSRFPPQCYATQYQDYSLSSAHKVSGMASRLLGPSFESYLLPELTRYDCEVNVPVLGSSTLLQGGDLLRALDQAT

As to `O[C@H]1c2c(C(F)(F)F)nn(CCc3ccoc3)c2CC1(F)F` [Example 78, (4S)-5,5-difluoro-1-[2-(furan-3-yl)ethyl]-3-(trifluoromethyl)-1H,4H,5H,6H-cyclopenta[c]pyrazol-4-ol], the IC50 is less than 100 nM against HIF-2α [1] and more than 1000 nM on HIF-2α [2]. In addition, on HIF-2α [2] (setting [3]), the “Serum Shift (approximate)” value was determined as 8.
On to `CO[C@H](CCn1nc(C(F)(F)F)c2c1[C@@H](F)[C@@H](F)[C@H]2O)C(F)(F)F` [Example 131, (4S,5S,6R)-5,6-difluoro-1-[(3R)-4,4,4-trifluoro-3-methoxybutyl]-3-(trifluoromethyl)-5,6-dihydro-4H-cyclopenta[c]pyrazol-4-ol], for which the IC50 at HIF-2α [1] and on HIF-2α [2] was less than 100 nM in each case. Also, the “Serum Shift (approximate)” value at HIF-2α [2] (setting [3]) was 2.
Turning to `CC(C#N)CCn1nc(C(F)(F)F)c2c1CC(F)(F)[C@H]2O` (stereo partly drawn) [Example 55, 4-[(4S)-5,5-difluoro-4-hydroxy-3-(trifluoromethyl)-4,6-dihydrocyclopenta[c]pyrazol-1-yl]-2-methylbutanenitrile], the IC50 against HIF-2α [1] and at HIF-2α [2] was 100 to 1000 nM each time. Also, the “Serum Shift (approximate)” value at HIF-2α [2] (setting [3]) was found to be 1.
For the compound `O[C@H]1c2c(C(F)(F)F)nn(-c3ccc(C(F)(F)F)cc3)c2CC1(F)F` [Example 117, (4S)-5,5-difluoro-3-(trifluoromethyl)-1-[4-(trifluoromethyl)phenyl]-4,6-dihydrocyclopenta[c]pyrazol-4-ol], the IC50 against HIF-2α [1] was less than 100 nM; at HIF-2α [2], more than 1000 nM. Also, the “Serum Shift (approximate)” value on HIF-2α [2] (setting [3]) is more than 62.
For `O[C@H]1c2c(C(F)(F)F)nn(-c3ccc(Cl)c(Cl)c3)c2CC1(F)F` [Example 118, (4S)-1-(3,4-dichlorophenyl)-5,5-difluoro-3-(trifluoromethyl)-4,6-dihydrocyclopenta[c]pyrazol-4-ol], in that order: less than 100 nM, more than 1000 nM and 119.
Turning to `O[C@H]1c2c(C(F)(F)F)nn(C3CC4(C3)CC(F)(F)C4)c2[C@@H](F)[C@@H]1F` (single isomer, unassigned) [Example 134], the IC50 against HIF-2α [1] is less than 100 nM; at HIF-2α [2] it was more than 1000 nM. In addition, the “Serum Shift (approximate)” value on HIF-2α [2] (setting [3]) worked out at 13.
Turning to `O=S1(=O)CC(Cn2nc(C(F)(F)F)c3c2CC(F)(F)[C@H]3O)C1` [Example 57, (4S)-1-[(1,1-dioxothietan-3-yl)methyl]-5,5-difluoro-3-(trifluoromethyl)-4,6-dihydrocyclopenta[c]pyrazol-4-ol], the IC50 on HIF-2α [1] and on HIF-2α [2] was 100 to 1000 nM each time. At HIF-2α [2] (setting [3]), the “Serum Shift (approximate)” value is 2.
As to `CO[C@H](CCn1nc(C(F)(F)F)c2c1CC(F)(F)[C@H]2O)C(F)(F)F` [Example 61, (4S)-5,5-difluoro-1-[(3R)-4,4,4-trifluoro-3-methoxybutyl]-3-(trifluoromethyl)-4,6-dihydrocyclopenta[c]pyrazol-4-ol], the IC50 at HIF-2α [1] and at HIF-2α [2] was less than 100 nM throughout.
Take `O[C@H]1c2c(C(F)(F)F)nn(CCCOC(F)(F)F)c2CCC1(F)F` [Example 30, (4S)-5,5-difluoro-1-[3-(trifluoromethoxy)propyl]-3-(trifluoromethyl)-6,7-dihydro-4H-indazol-4-ol]: the results for the IC50 against HIF-2α [1] and on HIF-2α [2] were less than 100 nM and 100 to 1000 nM, respectively. In addition, at HIF-2α [2] (setting [3]), the “Serum Shift (approximate)” value amounted to 8.
For `O[C@H]1c2c(C(F)(F)F)nn(CCCOC(F)(F)F)c2[C@H](F)CC1(F)F` (single isomer, unassigned) [129/130 DIAST-2] the same measures were 100 to 1000 nM, more than 1000 nM and 17.
The compound `O[C@H]1c2c(C(F)(F)F)nn([C@@H]3C[C@@H](F)[C@@H](F)[C@@H](F)C3)c2[C@@H](F)[C@H]1F` [Example 140, (4S,5S,6R)-5,6-difluoro-1-[(3R,5S)-3,4,5-trifluorocyclohexyl]-3-(trifluoromethyl)-5,6-dihydro-4H-cyclopenta[c]pyrazol-4-ol] had an IC50 at HIF-2α [1] of less than 100 nM. Also, on HIF-2α [2], the “Serum Shift (approximate)” value worked out at 3 and the IC50 was 100 to 1000 nM.
With `O[C@H]1c2c(C(F)(F)F)nn(CC3CCC(F)(F)CC3)c2CC1(F)F` [Example 113, (4S)-1-[(4,4-difluorocyclohexyl)methyl]-5,5-difluoro-3-(trifluoromethyl)-1H, 4H, 5H, 6H-cyclopenta[c]pyrazol-4-ol], the IC50 against HIF-2α [1] is less than 100 nM; on HIF-2α [2], more than 1000 nM. Also, at HIF-2α [2] (setting [3]), the “Serum Shift (approximate)” value was found to be 14.
For `O[C@H]1c2c(C(F)(F)F)nn([C@@H]3C[C@H](F)C[C@H](F)C3)c2CC1(F)F` [Example 89, (4S)-1-[(3R,5S)-3,5-difluorocyclohexyl]-5,5-difluoro-3-(trifluoromethyl)-4,6-dihydrocyclopenta[c]pyrazol-4-ol] the same measures were less than 100 nM, 100 to 1000 nM and 7.
For `O[C@H]1c2c(C(F)(F)F)nn(CCCC(F)(F)F)c2[C@@H](F)C1(F)F` (single isomer, unassigned) [Example 123], in that order: 100 to 1000 nM, more than 1000 nM and 12.
For `O[C@H]1c2c(C(F)(F)F)nn([C@H]3C[C@@H](COC(F)F)C3)c2CC1(F)F` [Example 103, (4S)-1-[3-(difluoromethoxymethyl)cyclobutyl]-5,5-difluoro-3-(trifluoromethyl)-4,6-dihydrocyclopenta[c]pyrazol-4-ol] the same measures were more than 1000 nM, more than 1000 nM and 7.
Regarding `O=S1(=O)CC(Cn2nc(C(F)(F)F)c3c2C[C@@H](F)[C@H]3O)C1` [Example 84, 3-{[(4S,5R)-5-fluoro-4-hydroxy-3-(trifluoromethyl)-1H,4H,5H,6H-cyclopenta[c]pyrazol-1-yl]methyl}-1λ^6-thietane-1,1-dione], the IC50 against HIF-2α [1] was 100 to 1000 nM; at HIF-2α [2], more than 1000 nM. Moreover, the “Serum Shift (approximate)” value on HIF-2α [2] (setting [3]) is recorded as 2.
As for `CO[C@H]1C[C@@H](n2nc(C(F)(F)F)c3c2CC(F)(F)[C@H]3O)CCC1(F)F` (racemic) [Example 109, (4S)-1-[(1S,3S)-4,4-difluoro-3-methoxycyclohexyl]-5,5-difluoro-3-(trifluoromethyl)-1H,4H,5H,6H-cyclopenta[c]pyrazol-4-ol and (4S)-1-[(1R,3R)-4,4-difluoro-3-methoxycyclohexyl]-5,5-difluoro-3-(trifluoromethyl)-1H,4H,5H,6H-cyclopenta[c]pyrazol-4-ol], the IC50 against HIF-2α [1] and at HIF-2α [2] was 100 to 1000 nM throughout. For the same compound, the “Serum Shift (approximate)” value on HIF-2α [2] (setting [3]) is reported as 4.
Consider `O[C@H]1c2c(C(F)(F)F)nn(C3CCO[C@H](C(F)(F)F)C3)c2CC1(F)F` (single isomer, unassigned) [94/95 DIAST-2], for which the IC50 was less than 100 nM against HIF-2α [1] and more than 1000 nM at HIF-2α [2]. For the same compound, the “Serum Shift (approximate)” value at HIF-2α [2] (setting [3]) came to 23.
For `O[C@H]1c2c(C(F)(F)F)nn([C@@H]3CCCC(F)(F)C3)c2[C@@H](F)[C@H]1F` (single isomer, unassigned) [136/137 DIAST-2] the same measures were less than 100 nM, 100 to 1000 nM and 7.
For `O[C@H]1c2c(C(F)(F)F)nn([C@H]3C[C@H](F)C[C@H](F)C3)c2CC1(F)F` [Example 71, (4S)-1-[(3R,5S)-3,5-difluorocyclohexyl]-5,5-difluoro-3-(trifluoromethyl)-4,6-dihydrocyclopenta[c]pyrazol-4-ol], the values for the IC50 at HIF-2α [1] and on HIF-2α [2] were less than 100 nM and more than 1000 nM, respectively. On HIF-2α [2] (setting [3]), the “Serum Shift (approximate)” value stood at 18.
For `O[C@H]1c2c(C(F)(F)F)nn([C@H]3C[C@@H](F)[C@@H](F)[C@@H](F)C3)c2[C@@H](F)[C@H]1F` [Example 143, (4S,5S,6R)-5,6-difluoro-1-[(3R,5S)-3,4,5-trifluorocyclohexyl]-3-(trifluoromethyl)-5,6-dihydro-4H-cyclopenta[c]pyrazol-4-ol] the same measures were 100 to 1000 nM, more than 1000 nM and 9.
Take `[O-][S+](CCn1nc(C(F)(F)F)c2c1CCC(F)(F)[C@H]2O)C(F)F` (stereo partly drawn) [Example 128, (4S)-1-[2-(difluoromethylsulfinyl)ethyl]-5,5-difluoro-3-(trifluoromethyl)-6,7-dihydro-4H-indazol-4-ol]: the IC50 was 100 to 1000 nM at HIF-2α [1] and more than 1000 nM at HIF-2α [2]. The “Serum Shift (approximate)” value on HIF-2α [2] (setting [3]) is recorded as 4.
For `O[C@H]1c2c(C(F)(F)F)nn([C@H]3C[C@H](COC(F)F)C3)c2CCC1(F)F` [Example 104, (4S)-1-[3-(difluoromethoxymethyl)cyclobutyl]-5,5-difluoro-3-(trifluoromethyl)-6,7-dihydro-4H-indazol-4-ol], in that order: 100 to 1000 nM, more than 1000 nM and 20.
As for `O[C@H]1c2c(C(F)(F)F)nn([C@@H]3CC[C@@H](F)[C@@H](F)C3)c2[C@@H](F)C1(F)F` [Example 156, (4S,6R)-1-[(1R,3S,4R)-3,4-difluorocyclohexyl]-5,5,6-trifluoro-3-(trifluoromethyl)-4,6-dihydrocyclopenta[c]pyrazol-4-ol], the IC50 was less than 100 nM on HIF-2α [1] and 100 to 1000 nM on HIF-2α [2]. Moreover, the “Serum Shift (approximate)” value at HIF-2α [2] (setting [3]) amounted to 8.
`O[C@H]1c2c(C(F)(F)F)nn([C@@H]3CCC[C@@H](C(F)(F)F)C3)c2CC1(F)F` [Example 80, (4S)-5,5-difluoro-3-(trifluoromethyl)-1-[(1R)-3-(trifluoromethyl)cyclohexyl]-1H,4H,5H,6H-cyclopenta[c]pyrazol-4-ol]: the results for the IC50 at HIF-2α [1] and on HIF-2α [2] were 100 to 1000 nM and more than 1000 nM, respectively. The “Serum Shift (approximate)” value on HIF-2α [2] (setting [3]) was more than 41.

Source of the values: patent US12071411B2, “Inhibitors of HIF-2α and methods of use thereof” (ARCUS BIOSCIENCES, INC., priority 2021, dated 2024).
